Each structure is given as a SMILES string. Square brackets hold non-standard residues; d marks the D form. Peptide text beside a SMILES is read from it. Phe(4-Cl) = N[C@@H](Cc1ccc(Cl)cc1)C(=O)O; Phe(2-Cl) = N[C@@H](Cc1ccccc1Cl)C(=O)O; Cha = N[C@@H](CC1CCCCC1)C(=O)O

The target in this experiment is T1, Androgen receptor (Homo sapiens, UniProt P10275).
T1 sequence (P10275 whole entry): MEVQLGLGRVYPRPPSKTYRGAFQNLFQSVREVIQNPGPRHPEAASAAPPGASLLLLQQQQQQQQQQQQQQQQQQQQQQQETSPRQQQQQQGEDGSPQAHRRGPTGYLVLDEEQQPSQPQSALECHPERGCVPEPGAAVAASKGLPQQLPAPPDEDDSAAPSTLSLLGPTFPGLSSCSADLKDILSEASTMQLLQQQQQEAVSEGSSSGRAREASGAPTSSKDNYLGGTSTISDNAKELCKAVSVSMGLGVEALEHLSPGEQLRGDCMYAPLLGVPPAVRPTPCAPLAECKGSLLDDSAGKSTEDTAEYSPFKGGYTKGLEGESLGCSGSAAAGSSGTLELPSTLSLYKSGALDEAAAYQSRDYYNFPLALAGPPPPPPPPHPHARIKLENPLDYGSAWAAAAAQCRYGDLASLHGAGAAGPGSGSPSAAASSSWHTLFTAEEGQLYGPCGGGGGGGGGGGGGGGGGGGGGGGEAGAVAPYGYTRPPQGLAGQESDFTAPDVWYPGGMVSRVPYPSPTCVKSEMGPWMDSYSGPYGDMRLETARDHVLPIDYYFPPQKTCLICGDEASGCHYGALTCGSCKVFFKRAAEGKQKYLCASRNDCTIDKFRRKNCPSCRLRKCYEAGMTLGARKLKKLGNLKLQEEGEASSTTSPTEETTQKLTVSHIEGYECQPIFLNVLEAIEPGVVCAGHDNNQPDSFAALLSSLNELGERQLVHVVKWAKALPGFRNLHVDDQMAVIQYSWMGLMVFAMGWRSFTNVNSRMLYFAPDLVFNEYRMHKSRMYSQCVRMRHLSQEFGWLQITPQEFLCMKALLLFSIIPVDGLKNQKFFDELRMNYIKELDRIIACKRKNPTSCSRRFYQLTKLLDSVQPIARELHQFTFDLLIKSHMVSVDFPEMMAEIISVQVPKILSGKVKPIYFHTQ
As to the kind of experiment: Displacement of fluorescein-CSSRFESLFAGEKESR from human androgen receptor-LBD after 1 hr by fluorescence polarization assay. In general terms: In fluorescence polarisation assays a small probe gives low polarisation when free and higher when bound to something large.
Broadly, the Ki is the equilibrium dissociation constant of an inhibitor or competing ligand from its target. The compound `CC(C)C[C@H](NC(=O)[C@H](CS)NC(=O)[C@H](C)N)C(=O)N[C@@H](Cc1ccccc1)C(=O)N[C@@H](CC(N)=O)C(=O)N[C@@H](CS)C(=O)N[C@@H](CC(C)C)C(=O)N[C@@H](Cc1ccccc1)C(=O)N[C@@H](CCC(=O)O)C(=O)NCC(=O)N[C@@H](CC(N)=O)C(=O)N[C@@H](CC(=O)O)C(=O)N[C@@H](CCC(=O)O)C(=O)N[C@@H](CCC(=O)O)C(=O)N[C@H](C(=O)N[C@@H](CS)C(=O)N[C@@H](CCCCN)C(=O)N[C@@H](CCC(=O)O)C(=O)N[C@@H](Cc1c[nH]c2ccccc12)C(=O)N[C@@H](CS)C(=O)O)[C@@H](C)O` (H-ACLFNCLFEGNDEETCKEWC-OH) had a Ki of 3000 nM.
Compound `CC(C)C[C@H](NC(=O)[C@H](CS)NC(=O)[C@H](CC(N)=O)NC(=O)[C@H](Cc1ccccc1)NC(=O)[C@H](CCCNC(=N)N)NC(=O)[C@H](CS)NC(=O)[C@H](C)N)C(=O)N[C@@H](Cc1ccccc1)C(=O)N[C@@H](CCC(=O)O)C(=O)NCC(=O)N[C@@H](CC(N)=O)C(=O)N[C@@H](CC(=O)O)C(=O)N[C@@H](CCC(=O)O)C(=O)N[C@@H](CCC(=O)O)C(=O)N[C@H](C(=O)N[C@@H](CS)C(=O)N[C@@H](CCCCN)C(=O)N[C@@H](CCC(=O)O)C(=O)N[C@@H](Cc1c[nH]c2ccccc12)C(=O)N[C@@H](CS)C(=O)O)[C@@H](C)O` (H-ACRFNCLFEGNDEETCKEWC-OH) gave a Ki of 12000 nM.
Then `CC(C)C[C@H](NC(=O)[C@H](CS)NC(=O)[C@H](Cc1ccccc1)NC(=O)[C@H](Cc1ccccc1)NC(=O)[C@H](Cc1ccc(O)cc1)NC(=O)[C@H](CS)NC(=O)[C@H](C)N)C(=O)N[C@@H](Cc1ccccc1)C(=O)N[C@@H](CCC(=O)O)C(=O)NCC(=O)N[C@@H](CC(N)=O)C(=O)N[C@@H](CC(=O)O)C(=O)N[C@@H](CCC(=O)O)C(=O)N[C@@H](CCC(=O)O)C(=O)N[C@H](C(=O)N[C@@H](CS)C(=O)N[C@@H](CCCCN)C(=O)N[C@@H](CCC(=O)O)C(=O)N[C@@H](Cc1c[nH]c2ccccc12)C(=O)N[C@@H](CS)C(=O)O)[C@@H](C)O` (H-ACYFFCLFEGNDEETCKEWC-OH), with 4000 nM; and `CC(C)C[C@H](NC(=O)[C@H](CS)NC(=O)[C@H](Cc1cnc[nH]1)NC(=O)[C@H](Cc1ccccc1)NC(=O)[C@H](Cc1ccc(O)cc1)NC(=O)[C@H](CS)NC(=O)[C@H](C)N)C(=O)N[C@@H](Cc1ccccc1)C(=O)N[C@@H](CCC(=O)O)C(=O)NCC(=O)N[C@@H](CC(N)=O)C(=O)N[C@@H](CC(=O)O)C(=O)N[C@@H](CCC(=O)O)C(=O)N[C@@H](CCC(=O)O)C(=O)N[C@H](C(=O)N[C@@H](CS)C(=O)N[C@@H](CCCCN)C(=O)N[C@@H](CCC(=O)O)C(=O)N[C@@H](Cc1c[nH]c2ccccc12)C(=O)N[C@@H](CS)C(=O)O)[C@@H](C)O` (H-ACYFHCLFEGNDEETCKEWC-OH), with 7000 nM; and `CC(C)C[C@H](NC(=O)[C@H](CS)NC(=O)[C@H](CC(N)=O)NC(=O)[C@H](Cc1ccccc1)NC(=O)[C@H](Cc1ccc(O)cc1)NC(=O)[C@H](CS)NC(=O)[C@H](C)N)C(=O)N[C@@H](Cc1ccccc1)C(=O)N[C@@H](CCC(=O)O)C(=O)NCC(=O)N[C@@H](CCC(=O)O)C(=O)N[C@@H](CC(=O)O)C(=O)N[C@@H](CCC(=O)O)C(=O)N[C@@H](CCC(=O)O)C(=O)N[C@H](C(=O)N[C@@H](CS)C(=O)N[C@@H](CCCCN)C(=O)N[C@@H](CCC(=O)O)C(=O)N[C@@H](Cc1c[nH]c2ccccc12)C(=O)N[C@@H](CS)C(=O)O)[C@@H](C)O` (H-ACYFNCLFEGEDEETCKEWC-OH), with 200 nM.
Then `CC(C)C[C@H](NC(=O)[C@H](CS)NC(=O)[C@H](CC(N)=O)NC(=O)[C@H](Cc1ccccc1)NC(=O)[C@H](Cc1ccc(O)cc1)NC(=O)[C@H](CS)NC(=O)[C@H](C)N)C(=O)N[C@@H](Cc1ccccc1)C(=O)N[C@@H](CCC(=O)O)C(=O)NCC(=O)N[C@@H](CC(N)=O)C(=O)N[C@@H](CC(=O)O)C(=O)N[C@@H](CCC(=O)O)C(=O)N[C@@H](CCC(=O)O)C(=O)N[C@H](C(=O)N[C@@H](CS)C(=O)N[C@@H](CCCCN)C(=O)N[C@@H](CCC(=O)O)C(=O)N[C@@H](CCCNC(=N)N)C(=O)N[C@@H](CS)C(=O)O)[C@@H](C)O` (H-ACYFNCLFEGNDEETCKERC-OH), with 2000 nM; and `CC(C)C[C@H](NC(=O)[C@H](CS)NC(=O)[C@H](CC(N)=O)NC(=O)[C@H](Cc1ccccc1)NC(=O)[C@H](Cc1ccc(O)cc1)NC(=O)[C@H](CS)NC(=O)[C@H](C)N)C(=O)N[C@@H](Cc1ccccc1)C(=O)N[C@@H](CCC(=O)O)C(=O)NCC(=O)N[C@@H](CC(N)=O)C(=O)N[C@@H](CC(=O)O)C(=O)N[C@@H](CCC(=O)O)C(=O)N[C@@H](CCC(=O)O)C(=O)N[C@H](C(=O)N[C@@H](CS)C(=O)N[C@@H](CCCCN)C(=O)N[C@@H](CCC(=O)O)C(=O)N[C@@H](Cc1c[nH]c2ccccc12)C(=O)N[C@@H](CS)C(=O)O)[C@@H](C)O` (H-ACYFNCLFEGNDEETCKEWC-OH), with 1700 nM.
Then `CC(C)C[C@H](NC(=O)[C@H](CS)NC(=O)[C@H](CC(N)=O)NC(=O)[C@H](Cc1ccccc1)NC(=O)[C@H](Cc1ccc(O)cc1)NC(=O)[C@H](CS)NC(=O)[C@H](C)N)C(=O)N[C@@H](CC1CCCCC1)C(=O)N[C@@H](CCC(=O)O)C(=O)NCC(=O)N[C@@H](CC(N)=O)C(=O)N[C@@H](CC(=O)O)C(=O)N[C@@H](CCC(=O)O)C(=O)N[C@@H](CCC(=O)O)C(=O)N[C@H](C(=O)N[C@@H](CS)C(=O)N[C@@H](CCCCN)C(=O)N[C@@H](CCC(=O)O)C(=O)N[C@@H](Cc1c[nH]c2ccccc12)C(=O)N[C@@H](CS)C(=O)O)[C@@H](C)O` (H-ACYFNCL[Cha]EGNDEETCKEWC-OH), with 2300 nM; and `CC(C)C[C@H](NC(=O)[C@H](CS)NC(=O)[C@H](CC(N)=O)NC(=O)[C@H](Cc1ccccc1)NC(=O)[C@H](Cc1ccc(O)cc1)NC(=O)[C@H](CS)NC(=O)[C@H](C)N)C(=O)N[C@@H](Cc1ccccc1Cl)C(=O)N[C@@H](CCC(=O)O)C(=O)NCC(=O)N[C@@H](CC(N)=O)C(=O)N[C@@H](CC(=O)O)C(=O)N[C@@H](CCC(=O)O)C(=O)N[C@@H](CCC(=O)O)C(=O)N[C@H](C(=O)N[C@@H](CS)C(=O)N[C@@H](CCCCN)C(=O)N[C@@H](CCC(=O)O)C(=O)N[C@@H](Cc1c[nH]c2ccccc12)C(=O)N[C@@H](CS)C(=O)O)[C@@H](C)O` (H-ACYFNCL[Phe(2-Cl)]EGNDEETCKEWC-OH), with 3000 nM; and `CC(C)C[C@H](NC(=O)[C@H](CS)NC(=O)[C@H](CC(N)=O)NC(=O)[C@H](Cc1ccccc1)NC(=O)[C@H](Cc1ccc(O)cc1)NC(=O)[C@H](CS)NC(=O)[C@H](C)N)C(=O)N[C@@H](Cc1ccc(Cl)cc1)C(=O)N[C@@H](CCC(=O)O)C(=O)NCC(=O)N[C@@H](CC(N)=O)C(=O)N[C@@H](CC(=O)O)C(=O)N[C@@H](CCC(=O)O)C(=O)N[C@@H](CCC(=O)O)C(=O)N[C@H](C(=O)N[C@@H](CS)C(=O)N[C@@H](CCCCN)C(=O)N[C@@H](CCC(=O)O)C(=O)N[C@@H](Cc1c[nH]c2ccccc12)C(=O)N[C@@H](CS)C(=O)O)[C@@H](C)O` (H-ACYFNCL[Phe(4-Cl)]EGNDEETCKEWC-OH), with 600 nM.

For the origin of these results see ChEMBL document CHEMBL3132744, “Structureactivity relationship studies of miniproteins targeting the androgen receptorcoactivator interaction” (Medchemcomm, 2013).
